Reference: patent US20230053540A1, “TREATMENT OF LIVER INJURY” (Massachusetts Institute of Technology, priority 2019, published 2023)

Tested on: hepatocytes
Test: Seq-Well scRNA-Seq of hepatocytes after APAP overdose (signature scores, DEG vs untreated)
Type: in vivo, mouse
Conditions: APAP vs UT

CC(=O)Nc1ccc(O)cc1 [APAP, acetaminophen]
Apobec1 logFC: 0.3051
Apol7a logFC: −0.4923
App logFC: 0.3618
Arcn1 logFC: 0.3278
Arl4d logFC: −0.5072
Asgr1 logFC: −0.3857
Atox1 logFC: −0.4462
Atp5e logFC: −0.6502
Atp5f1 logFC: −0.5171
Atp5j2 logFC: −0.5131
Atp5j logFC: −0.4837
Atp8b1 logFC: 0.3628
Atxn1 logFC: 0.3049
BC005537 logFC: 0.3543
Baz1a logFC: 0.2596
Bcl3 logFC: 0.289
Blvrb logFC: −0.5451
Btg1 logFC: 0.458
Btg2 logFC: 0.8321
C1qa logFC: 0.5148
C1qc logFC: 0.5861
C8a logFC: 0.3337
Calm1 logFC: 0.4131
Calu logFC: 0.3041
Canx logFC: 0.3434
Cat logFC: 0.2626
Cd44 logFC: 0.3037
Cd53 logFC: 0.2656
Cd74 logFC: 0.4539
Cd97 logFC: 0.3458
Cd302 logFC: −0.5499
Cebpb logFC: −0.4716
Ces1e logFC: 0.2656
Ces3b logFC: −0.3664
Cfh logFC: 0.4009
Cfhr2 logFC: −0.4485
Cfi logFC: 0.2516
Cfp logFC: 0.3562
Chchd2 logFC: −0.5525
Chic2 logFC: 0.4198
Cldn14 logFC: 0.3645
Clpx logFC: −0.4047
Cltc logFC: 0.785
Cmah logFC: 0.3616
Cmbl logFC: −0.4427
Cml1 logFC: −0.6142
Cml2 logFC: −0.3979
Copa logFC: 0.3451
Cox5b logFC: −0.4988
Cox7a2 logFC: −0.6503
Cox7b logFC: −0.6422
Cpb2 logFC: 0.3222
Cps1 logFC: 0.3245
Crp logFC: −0.5069
Csde1 logFC: 0.3269
Ctsd logFC: 0.2579
Ctsl logFC: 0.5301
Cxadr logFC: 0.6985
Cyb5b logFC: −0.4233
Cyb5r3 logFC: 0.339
Cyp4a12a logFC: −0.4568
Cytip logFC: 0.2676
Dcxr logFC: −0.4409
Ddt logFC: −0.5222
Ddx3x logFC: 0.6569
Ddx5 logFC: 0.5229
Ddx21 logFC: 0.7314
Dgkd logFC: 0.3708
Dhrs3 logFC: −0.4676
Dio1 logFC: −0.5453
Dkc1 logFC: 0.3258
Dnajc12 logFC: 0.3221
Dot1l logFC: 0.397
Dst logFC: 0.511
Dstn logFC: 0.3243
Dusp6 logFC: 0.5916
Dusp16 logFC: 0.4605
Eaf1 logFC: 0.5218
Ebpl logFC: −0.4503
Eef1b2 logFC: −0.3173
Eef2 logFC: 0.5259
Efna1 logFC: 0.3361
Eif1a logFC: 0.7953
Eif4g1 logFC: 0.3749
Epas1 logFC: 0.7758
Epb4.1 logFC: 0.5628
Errfi1 logFC: 0.3937
Etf1 logFC: 0.5594
Etfb logFC: −0.3655
Etnk1 logFC: 0.3521
F5 logFC: 0.3006
Fabp2 logFC: −0.6156
Fcgr3 logFC: 0.3082
Fcna logFC: 0.3774
Fdx1 logFC: −0.6234
Fgl2 logFC: 0.2818
Fkbp5 logFC: 0.5161
Fndc3b logFC: 0.4096
Fos logFC: 0.432
Fxyd1 logFC: −0.4799
Gamt logFC: −0.5603
Gas5 logFC: −0.3362
Gchfr logFC: −0.5548
Gclm logFC: 0.2699
Gjb2 logFC: 0.6082
Glyat logFC: −0.6477
Gm4076 logFC: −0.3255
Gm4952 logFC: −0.4987
Gm5096 logFC: −0.3631
Gm23388 logFC: 0.4162
Gm24187 logFC: 0.4319
Gm26917 logFC: 0.8237
Gnl2 logFC: 0.3905
Gnl3 logFC: 0.576
Gpt2 logFC: 0.5391
Gsta2 logFC: 0.2522
Gstm3 logFC: −0.5986
Gstz1 logFC: −0.4641
Gulo logFC: −0.8017
H2-Aa logFC: 0.3279
H2-Ab1 logFC: 0.461
H2-Eb1 logFC: 0.3279
H3f3b logFC: 0.7029
Haao logFC: −0.5912
Hacl1 logFC: −0.7069
Hadha logFC: 0.2509
Hal logFC: 0.2801
Hao1 logFC: 0.323
Hc logFC: 0.3679
Heatr1 logFC: 0.406
Hebp1 logFC: −0.6354
Hes6 logFC: −0.5613
Hibadh logFC: −0.4994
Hic2 logFC: 0.2898
Hif1a logFC: 0.5169
Hint2 logFC: −0.4243
Hook1 logFC: 0.3274
Hpd logFC: −0.5182
Hpgd logFC: −0.3878
Hpx logFC: −0.3033
Hs3st3b1 logFC: 0.343
Hsd17b2 logFC: −0.5959
Hspa13 logFC: 0.3548
Hspb8 logFC: 0.6339
Hspe1 logFC: −0.4807
Ibtk logFC: 0.3311
Ier5 logFC: 0.289
Ifitm3 logFC: −0.4251
Igfbp1 logFC: 1.059
Igfbp2 logFC: −0.3451
Il6st logFC: 0.3335
Il13ra1 logFC: 0.303
Inmt logFC: −0.731
Insig1 logFC: 0.4655
Ipo7 logFC: 0.3246
Itgb2 logFC: 0.2723
Itih2 logFC: 0.5011
Jak1 logFC: 0.6039
Jmjd1c logFC: 0.6366
Kctd3 logFC: 0.2608
Keg1 logFC: −0.8245
Klf15 logFC: −0.4518
Kmo logFC: −0.3844
Lactb2 logFC: −0.5965
Laptm5 logFC: 0.3382
Lcn2 logFC: 0.4122
Leap2 logFC: −0.6713
Lect2 logFC: −0.627
Lgmn logFC: 0.4846
Lgr4 logFC: 0.269
Lman1 logFC: 0.2986
Lmo4 logFC: 0.3205
Lonp2 logFC: −0.4674
Lpin1 logFC: 0.2775
Lrp1 logFC: 0.5051
Lrrc59 logFC: 0.3772
Lrrfip1 logFC: 0.4459
Lyst logFC: 0.4093
Maff logFC: 0.3553
Mak16 logFC: 0.3171
Malat1 logFC: 0.9206
Manf logFC: 0.4689
Map2k3 logFC: 0.4347
Mbl1 logFC: −0.713
Mcm10 logFC: −0.4874
Mdn1 logFC: 0.318
Minos1 logFC: −0.4555
Mlec logFC: 0.3246
Mmp14 logFC: 0.2889
Mpc1 logFC: −0.2818
Mpc2 logFC: −0.4828
Mrpl14 logFC: −0.459
Msn logFC: 0.2602
Msrb1 logFC: −0.599
Mug2 logFC: 0.3704
Mup2 logFC: 1
Myo1e logFC: 0.6143
Nab1 logFC: 0.3342
Ndufa6 logFC: −0.6136
Ndufa7 logFC: −0.5559
Ndufa13 logFC: −0.4388
Ndufb2 logFC: −0.5772
